In patent US8410056B2, “Pro-oxidant anti-cancer compounds” (priority 2006, dated 2013):
Entries after “also recorded” stand apart in the source; their conditions may differ.

Assays:
mesothelioma = experiment: Clinical study, patient with mesothelioma; type: in vivo
Procedure: α-TOS was used to treat mesothelioma in a human cancer patient. […] The blood plasma levels were monitored and levels of α-TOS in the plasma attained 50 μM over prolonged periods during continual application. This is more than sufficient to kill the cancer cells based on in vitro analysis.
The patient was originally receiving high dose opiate medications, neuropathic pain medications, home oxygen, and was predicted to have a life expectancy of 6-8 weeks. After treatment with α-TOS, the patient no longer required analgesia or oxygen.
In December 2005, the patient started receiving transdermal delivery of α-TOS, prepared in a base cream and solubilised with dimethyl sulfoxide (DMSO).
In April 2007, therapy with α-TOS was commenced using a modified formulation mixed in a lipodermal cream (see below). […] In addition, a palpable lesion was visible growing out between the ribs and the right anterior chest wall. The patient was in very poor condition with a low ECOG- no CT scan could be performed at the time of commencing the α-TOS treatment because the patient was too moribund.
α-TOS formulation: 500 gms of Lipoderm cream plus 60 gms α-TOS compounded by the hospital pharmacy. About 30 gms of compounded mix was administered every few days, and the upper body was wrapped in plastic film (“saran wrap”) to improve absorption.

[1] = cited from earlier work
[2] = tested on: MDA-MB-453, MCF-7 and NeuTL breast cancer cells; experiment: ATP bioluminescence assay; type: cell-based, human; murine; details: 6 or 24 h; normoxia or hypoxia
Procedure: Cell culture and treatment. […] Cells were cultured in DMEM with 10% FCS, 100 U/ml penicillin and 100 μg/ml streptomycin at 37° C. in a humidified atmosphere of 5% CO2. Mitochondrial complex I-deficient (Breen and Scheffler 1979; DeFrancesco et al 1976; Scheffler et al 2004) and complex II-deficient cells (Albayrak et al 2003; Oostveen et al 1995) were grown in DMEM with 10% FCS, […] glucose and non-essential amino acids.
At approximately 70% confluency, cells were treated with up to 50 μM α-TOS (Sigma), up to 100 μM 3-BP (Aldrich) or 30 ng/ml of human recombinant tumor necrosis factor-related apoptosis—inducing ligand (TRAIL) (Weber et al, 2002) under normoxic or hypoxic conditions. For hypoxia, cells overlaid with nitrogen-purged medium were placed in a hypoxic chamber pre-flushed extensively with nitrogen. The hypoxic chamber with cells was then placed in the incubator as required. α-TOS was dissolved in ethanol and used such that the final ethanol concentration in cell culture medium was <0.1% (v/v). Stock solutions of 3-BP were prepared in PBS prior to use.
ATP measurement. MDA-MB-453 and NeuTL cells were seeded at 2×10^5 per ml and MCF-7 cells at 1.2×10^5 per ml into 96-well tissue culture microtitre plates and allowed to recover overnight before use. Cells were incubated for 6 or 24 h with α-TOS or 3-BP under normoxia or hypoxia as described above. ATP levels were then measured using an ATP bioluminescence assay kit HSII (Roche Applied Science) according to the manufacturer's instructions. Briefly, control or treated cells were transferred into black microtitre plates after incubation for 5 min at room temperature with the cell lysis reagent. Luciferase reagent was added and the signal detected immediately using a Fluorostar Optima plate reader (BMG Labtech). Triplicate wells were read for each condition and data evaluated using a standard calibration curve prepared with known concentrations of ATP.

[3] = biological target: T1, complex II/SDH-dependent activity in NeuTL cells (Mus musculus, UniProt Q8K2B3+Q9CQA3+Q9CXV1+Q9CZB0); experiment: MTT reduction assay of complex II/SDH activity in whole cells; type: cell-based, murine
T1 construct: For specifically measuring complex II activity in whole cells; endogenous in cells; host or cells: NeuTL murine breast cancer cells
Procedure: MTT assay. MTT solutions were prepared immediately before use by dissolving 2.5 mg/ml 3-(4,5-dimethyl[…] (MTT) (Sigma) in PBS alone or phenol red-free RPMI medium containing 20 mM succinic acid, pH 7.4. Stock solutions of 3-nitropropionic acid (3NPA) in ethanol, thenoyltrifluoroacetone (TTFA) in DMSO, 3-BP in PBS, α-TOS in DMSO, and MitoQ (Alleva et al, 2003, James et al, 2005) in ethanol were prepared. The drugs were tested on NeuTL cells cultured in exponential growth phase in 96-well microtitre plates using 4-8 replicate wells per dilution assayed. To assess the ability of MitoQ to restore MTT reduction, cells were pre-incubated for 60 min with 2 or 5 μM MitoQ. Final concentrations of ethanol or DMSO in cultures were ≦0.1%. Treated and control cells were allowed to reduce MTT to blue formazan crystals for 2 or 4 h at 37° C. and 5% CO2. After incubation, culture supernatants were removed except for 30 μl, before the formazan crystals were solubilized by addition of 150 μl DMSO, and absorbance values were measured at 570 nm using a Fluorostar Optima plate reader.
To this end, the present inventors investigated whether α-TOS interferes with UbQ binding in complex II. For specifically measuring complex II activity in whole cells, a short-term (1-2 h) assay was used based on the reduction of the tetrazolium salt, MTT (Maehara et al, 1988). […] For this, oxidative respiration of murine NeuTL breast cancer cells was sustained on high levels of succinate (20 mM), thereby promoting the SDH activity of complex II (Maehara et al, 1988). The cells were then assayed within 1-2 h for their ability to enzymatically reduce MTT, which under conditions of high succinate becomes a specific indicator of complex II/SDH-dependent activity (Maehara et al, 1988, Berridge and Tan, 1993).

T1 sequence (Q8K2B3 43-664): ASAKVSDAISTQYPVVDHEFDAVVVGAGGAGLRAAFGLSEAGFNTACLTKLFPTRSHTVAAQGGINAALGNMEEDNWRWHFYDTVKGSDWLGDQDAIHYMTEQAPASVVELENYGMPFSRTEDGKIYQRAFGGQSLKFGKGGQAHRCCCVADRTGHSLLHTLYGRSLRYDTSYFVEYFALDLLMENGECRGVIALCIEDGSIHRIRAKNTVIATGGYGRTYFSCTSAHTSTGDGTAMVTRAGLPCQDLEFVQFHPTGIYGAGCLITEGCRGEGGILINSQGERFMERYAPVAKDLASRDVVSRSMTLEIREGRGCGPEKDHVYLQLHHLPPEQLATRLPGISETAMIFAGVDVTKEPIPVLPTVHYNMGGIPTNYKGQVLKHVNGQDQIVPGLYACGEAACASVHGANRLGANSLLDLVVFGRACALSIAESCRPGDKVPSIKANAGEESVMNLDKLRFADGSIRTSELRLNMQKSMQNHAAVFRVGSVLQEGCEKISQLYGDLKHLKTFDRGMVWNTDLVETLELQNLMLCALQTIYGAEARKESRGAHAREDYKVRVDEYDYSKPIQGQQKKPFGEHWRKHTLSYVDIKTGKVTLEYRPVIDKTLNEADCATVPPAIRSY
T1 sequence (Q9CQA3 31-282): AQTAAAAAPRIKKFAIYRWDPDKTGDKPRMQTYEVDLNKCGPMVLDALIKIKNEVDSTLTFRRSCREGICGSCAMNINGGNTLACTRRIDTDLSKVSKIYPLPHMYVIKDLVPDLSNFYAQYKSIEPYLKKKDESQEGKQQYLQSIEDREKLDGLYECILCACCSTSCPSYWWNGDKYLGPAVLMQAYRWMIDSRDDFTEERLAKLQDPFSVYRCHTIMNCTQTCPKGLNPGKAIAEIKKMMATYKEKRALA
T1 sequence (Q9CZB0 30-169): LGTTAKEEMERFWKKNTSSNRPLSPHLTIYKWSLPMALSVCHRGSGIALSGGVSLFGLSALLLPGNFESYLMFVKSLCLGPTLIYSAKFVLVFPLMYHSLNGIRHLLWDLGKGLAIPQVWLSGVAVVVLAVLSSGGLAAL
T1 sequence (Q9CXV1 57-159): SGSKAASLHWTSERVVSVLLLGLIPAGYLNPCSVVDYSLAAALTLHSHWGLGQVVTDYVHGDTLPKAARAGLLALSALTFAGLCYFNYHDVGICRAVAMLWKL

Q: With Cc1c(C)c2c(c(C)c1OC(=O)CCC(=O)O)CC[C@@](C)(CCC[C@H](C)CCC[C@H](C)CCCC(C)C)O2 [Compound 1, α-tocopheryl succinate] as the molecule, how does the “clinical effect” value (mesothelioma; human patient, α-TOS therapy) read?
A: worked very effectively; also recorded: shrunk dramatically

Q: What about the side effects (mesothelioma; human patient, α-TOS therapy) of the same molecule?
A: non-toxic with no observable side-effects and was well tolerated; also recorded: no obvious side-effects from the α-TOS therapy apart from a mild itch

Q: And the “levels of α-TOS in the plasma” value (mesothelioma; human, transdermal, continual application, over prolonged periods)?
A: 50 µM

Q: What about the “clinical response, DMSO base cream” value (mesothelioma; transdermal α-TOS in base cream solubilised with DMSO) of the same molecule?
A: showed clinical response

Q: What about the “side effects, DMSO base cream” value (mesothelioma; transdermal α-TOS in base cream solubilised with DMSO, about 8 weeks) of the same molecule?
A: major skin reaction problems secondary to DMSO

Q: And the pKa [1]?
A: < 6

Q: And the “cellular ATP levels” value [2]?
A: only significantly reduced cellular ATP levels when applied at the higher concentration of 50 μM

Q: And the “inhibition of MTT reduction after MitoQ pre-incubation” value ([3]; cells pre-incubated 1 h with MitoQ)?
A: significantly overcome by pre-incubation of the cells with MitoQ

Q: And the “enzymatic reduction of MTT” value ([3]; within a few hours of treatment)?
A: significant decreases occurring in the levels of MTT reduction
